Measurements reported in patent US11208412B2 (DAEGU-GYEONGBUK MEDICAL INNOVATION FOUNDATION, priority 2017, dated 2021).

Experiments:
Test in all cases: Kinase selectivity, DiscoverX scanMAX Kinase assay panel (% control)
Format in all cases: binding
[1] = molecular target: T1, kinases of the scanMAX Kinase assay panel (Homo sapiens, UniProt P36888, N841I); conditions: FLT3(N841I); 1 uM
T1 construct: purchased DiscoverX Co. (contract measurement) scanMAX Kinase assay panel
T1 sequence (P36888 27-993 N841I): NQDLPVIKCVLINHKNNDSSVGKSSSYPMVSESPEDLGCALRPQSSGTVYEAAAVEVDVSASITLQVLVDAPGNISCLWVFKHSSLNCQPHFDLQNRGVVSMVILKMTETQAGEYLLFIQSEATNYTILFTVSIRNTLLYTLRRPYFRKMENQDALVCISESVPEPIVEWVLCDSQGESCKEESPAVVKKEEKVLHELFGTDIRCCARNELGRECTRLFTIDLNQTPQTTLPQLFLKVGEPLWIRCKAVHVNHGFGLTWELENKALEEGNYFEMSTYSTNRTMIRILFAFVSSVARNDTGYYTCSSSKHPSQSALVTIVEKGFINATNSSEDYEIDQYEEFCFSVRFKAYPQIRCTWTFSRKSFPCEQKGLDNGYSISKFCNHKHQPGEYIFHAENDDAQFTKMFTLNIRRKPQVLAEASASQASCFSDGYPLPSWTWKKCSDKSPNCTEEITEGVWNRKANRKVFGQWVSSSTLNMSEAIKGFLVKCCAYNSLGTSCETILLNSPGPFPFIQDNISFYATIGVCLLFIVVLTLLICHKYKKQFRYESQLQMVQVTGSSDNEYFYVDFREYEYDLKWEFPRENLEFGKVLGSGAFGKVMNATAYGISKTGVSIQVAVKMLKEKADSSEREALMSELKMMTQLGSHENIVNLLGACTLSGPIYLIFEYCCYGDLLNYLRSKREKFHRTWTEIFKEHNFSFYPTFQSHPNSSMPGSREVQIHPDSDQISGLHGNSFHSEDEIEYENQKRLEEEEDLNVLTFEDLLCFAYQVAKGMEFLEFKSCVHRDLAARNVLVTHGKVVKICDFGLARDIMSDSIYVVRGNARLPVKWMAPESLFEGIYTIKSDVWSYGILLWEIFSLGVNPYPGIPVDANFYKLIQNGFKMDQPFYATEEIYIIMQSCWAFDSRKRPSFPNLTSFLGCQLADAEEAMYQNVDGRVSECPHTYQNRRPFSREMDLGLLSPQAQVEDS
Outline: (§1)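 Compounds tested at 1 uM against the scanMAX kinase panel. Signal expressed as % control = (compound − positive control)/(DMSO negative control − positive control) × 100, where positive control = 0% and DMSO = 100%; below 35% counted as activity on that kinase.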

[2] = molecular target: T2, kinases of the scanMAX Kinase assay panel (Homo sapiens, UniProt Q5S007); conditions: LRRK2; 1 uM
T2 construct: purchased DiscoverX Co. (contract measurement) scanMAX Kinase assay panel
T2 sequence (Q5S007 whole entry): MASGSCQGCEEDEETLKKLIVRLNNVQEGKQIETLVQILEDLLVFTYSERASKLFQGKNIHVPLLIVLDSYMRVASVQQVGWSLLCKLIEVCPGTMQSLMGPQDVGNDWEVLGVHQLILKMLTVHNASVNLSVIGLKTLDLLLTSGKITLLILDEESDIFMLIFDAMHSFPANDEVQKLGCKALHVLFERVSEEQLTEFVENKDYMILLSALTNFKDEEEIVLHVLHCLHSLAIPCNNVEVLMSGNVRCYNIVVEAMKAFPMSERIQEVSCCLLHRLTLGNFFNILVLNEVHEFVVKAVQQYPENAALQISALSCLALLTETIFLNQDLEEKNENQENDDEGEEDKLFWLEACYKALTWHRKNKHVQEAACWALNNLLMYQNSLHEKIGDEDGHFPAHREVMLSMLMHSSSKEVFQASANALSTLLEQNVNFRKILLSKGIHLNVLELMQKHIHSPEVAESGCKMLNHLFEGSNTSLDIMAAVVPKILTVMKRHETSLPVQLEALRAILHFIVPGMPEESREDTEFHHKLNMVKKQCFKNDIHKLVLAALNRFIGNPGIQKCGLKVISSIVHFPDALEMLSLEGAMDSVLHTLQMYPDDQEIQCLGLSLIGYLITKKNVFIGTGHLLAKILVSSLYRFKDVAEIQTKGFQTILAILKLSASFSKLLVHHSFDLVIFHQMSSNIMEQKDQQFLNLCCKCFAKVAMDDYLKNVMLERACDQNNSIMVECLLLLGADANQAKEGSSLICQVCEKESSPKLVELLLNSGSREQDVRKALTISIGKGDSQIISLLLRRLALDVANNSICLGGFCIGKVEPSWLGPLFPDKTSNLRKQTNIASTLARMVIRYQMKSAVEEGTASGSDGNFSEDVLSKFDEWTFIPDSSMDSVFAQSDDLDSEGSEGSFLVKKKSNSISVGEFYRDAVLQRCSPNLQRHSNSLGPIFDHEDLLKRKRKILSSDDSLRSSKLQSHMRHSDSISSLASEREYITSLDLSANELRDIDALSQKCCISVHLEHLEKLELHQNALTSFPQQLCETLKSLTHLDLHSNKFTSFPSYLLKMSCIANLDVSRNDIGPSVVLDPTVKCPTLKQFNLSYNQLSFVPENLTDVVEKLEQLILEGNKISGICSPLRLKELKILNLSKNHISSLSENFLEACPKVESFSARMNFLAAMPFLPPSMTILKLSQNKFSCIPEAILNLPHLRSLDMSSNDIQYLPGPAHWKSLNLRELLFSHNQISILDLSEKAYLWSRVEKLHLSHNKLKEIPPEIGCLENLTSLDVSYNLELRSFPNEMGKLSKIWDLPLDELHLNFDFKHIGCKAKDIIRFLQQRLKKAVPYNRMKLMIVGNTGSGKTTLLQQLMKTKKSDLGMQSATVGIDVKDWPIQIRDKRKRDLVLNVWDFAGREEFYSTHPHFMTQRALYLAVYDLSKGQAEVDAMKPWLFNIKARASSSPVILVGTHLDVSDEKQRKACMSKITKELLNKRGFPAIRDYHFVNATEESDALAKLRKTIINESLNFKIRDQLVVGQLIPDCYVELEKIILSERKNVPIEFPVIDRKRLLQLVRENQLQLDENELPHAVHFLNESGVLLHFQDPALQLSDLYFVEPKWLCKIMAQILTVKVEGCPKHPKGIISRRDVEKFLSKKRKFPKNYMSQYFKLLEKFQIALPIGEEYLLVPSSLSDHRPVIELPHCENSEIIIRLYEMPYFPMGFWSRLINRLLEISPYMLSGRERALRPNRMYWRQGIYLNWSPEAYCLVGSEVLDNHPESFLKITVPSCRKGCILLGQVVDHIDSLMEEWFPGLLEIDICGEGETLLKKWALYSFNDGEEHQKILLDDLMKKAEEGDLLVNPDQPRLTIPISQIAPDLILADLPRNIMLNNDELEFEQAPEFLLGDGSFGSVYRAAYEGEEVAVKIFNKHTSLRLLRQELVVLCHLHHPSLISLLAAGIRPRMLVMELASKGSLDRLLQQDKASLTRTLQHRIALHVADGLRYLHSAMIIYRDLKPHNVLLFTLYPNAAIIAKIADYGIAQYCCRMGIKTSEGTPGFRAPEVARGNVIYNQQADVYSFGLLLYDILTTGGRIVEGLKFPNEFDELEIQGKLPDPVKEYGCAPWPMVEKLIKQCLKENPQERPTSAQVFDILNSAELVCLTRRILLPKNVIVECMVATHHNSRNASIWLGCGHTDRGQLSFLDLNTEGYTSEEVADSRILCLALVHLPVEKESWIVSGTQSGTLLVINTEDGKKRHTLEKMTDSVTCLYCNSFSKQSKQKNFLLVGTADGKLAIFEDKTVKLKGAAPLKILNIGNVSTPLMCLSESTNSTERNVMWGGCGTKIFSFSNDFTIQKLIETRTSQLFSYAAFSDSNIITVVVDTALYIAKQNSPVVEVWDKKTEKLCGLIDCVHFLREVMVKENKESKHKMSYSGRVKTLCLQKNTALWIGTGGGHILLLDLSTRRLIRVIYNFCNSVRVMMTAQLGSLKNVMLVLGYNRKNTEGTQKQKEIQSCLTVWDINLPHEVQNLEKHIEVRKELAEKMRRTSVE
Outline: as §1

[3] = molecular target: T3, kinases of the scanMAX Kinase assay panel (Homo sapiens, UniProt O00444); conditions: PLK4; 1 uM
T3 construct: purchased DiscoverX Co. (contract measurement) scanMAX Kinase assay panel
T3 sequence (O00444 1-970): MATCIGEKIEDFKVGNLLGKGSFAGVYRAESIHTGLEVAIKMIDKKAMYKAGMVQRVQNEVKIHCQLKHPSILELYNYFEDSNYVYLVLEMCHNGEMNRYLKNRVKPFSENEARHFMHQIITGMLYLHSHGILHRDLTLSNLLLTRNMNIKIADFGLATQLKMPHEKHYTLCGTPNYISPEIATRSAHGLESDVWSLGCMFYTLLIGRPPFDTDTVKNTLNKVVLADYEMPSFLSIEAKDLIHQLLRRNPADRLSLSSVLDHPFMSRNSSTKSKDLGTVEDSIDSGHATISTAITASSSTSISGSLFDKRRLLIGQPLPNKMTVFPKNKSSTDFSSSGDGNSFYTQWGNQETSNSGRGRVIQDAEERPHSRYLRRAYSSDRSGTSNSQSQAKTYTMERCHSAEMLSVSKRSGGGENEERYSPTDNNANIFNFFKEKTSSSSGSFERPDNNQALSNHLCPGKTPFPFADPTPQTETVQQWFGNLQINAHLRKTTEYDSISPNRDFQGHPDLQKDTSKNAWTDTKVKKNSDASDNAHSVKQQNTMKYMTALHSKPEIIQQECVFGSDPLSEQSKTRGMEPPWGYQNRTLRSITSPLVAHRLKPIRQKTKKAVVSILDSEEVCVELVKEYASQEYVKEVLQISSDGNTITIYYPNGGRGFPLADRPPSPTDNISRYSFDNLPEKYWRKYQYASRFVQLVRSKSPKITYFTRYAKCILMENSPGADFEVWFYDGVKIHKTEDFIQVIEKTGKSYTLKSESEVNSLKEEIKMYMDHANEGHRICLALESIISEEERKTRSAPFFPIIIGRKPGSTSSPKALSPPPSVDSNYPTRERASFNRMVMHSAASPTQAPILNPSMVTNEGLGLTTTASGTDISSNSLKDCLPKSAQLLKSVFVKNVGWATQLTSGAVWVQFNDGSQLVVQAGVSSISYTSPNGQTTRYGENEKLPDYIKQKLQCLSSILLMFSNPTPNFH
Outline: as §1

| SMILES | remaining binding at 1 µM [1] [%] | remaining binding at 1 µM [2] [%] | remaining binding at 1 µM [3] [%] |
| --- | --- | --- | --- |
| CNc1nc(Nc2ccc(C(=O)N3CCOCC3)cc2OC)nc2[nH]cc(C#N)c12 [Example 1, 2-((2-methoxy-4-(morpholine-4-carbonyl)phenyl)amino)-4-(methylamino)-7H-pyrrolo[2,3-d]pyrimidine-5-carbonitrile] | 90 | 0 | 17 |
| CC1(Nc2nc(Nc3cnn([C@H]4CCN(C5COC5)C[C@@H]4F)c3Cl)nc3[nH]cc(C#N)c23)CC1 [Example 52, 2-((5-chloro-1-((3S,4S)-3-fluoro-1-(oxetane-3-yl)piperidine-4-yl)-1H-pyrazole-4-yl)amino)((1-methylcyclopropyl)amino)-7H-pyrrolo[2,3-d]pyrimidine-5-carbonitrile] | 0 | 0 | 0 |
| CCNc1nc(Nc2ccc(C(=O)N3CCC(N4CCOCC4)CC3)cc2OC)nc2[nH]cc(C(F)(F)F)c12 [Example 104, (4-((4-(ethylamino)-5-(trifluoromethyl)-7H-pyrrolo[2,3-d]pyrimidine-2-yl)amino)-3-methoxyphenyl)(4-morpholinopiperidine-1-yl)methanone] | 51 | 1.2 | 1.7 |
